Reference: patent US12673975B2, “Cyclic peptide, cell scaffold material, cell separating material, and medium” (FUJIFILM Corporation, priority 2019, dated 2026)
Starred links: 1 amine or outer side, 2 acyl side, 3 side chain; linkers in the order of their positions; H or OH if unused. Positions of bridges follow the written chain, without caps; N, C: chain ends. Non-standard residues stand in square brackets, D forms with d. Residues, ends and D or L forms follow the SMILES beside them. hCys = N[C@@H](CCS)C(=O)O; Dab = NCC[C@H](N)C(=O)O; X2 = O=C(C[*:1])[*:2]

Legend:
human integrin αvβ5 = human integrin αvβ5 (Homo sapiens, UniProt P06756+P18084); assay: Evaluation of integrin binding property (surface plasmon resonance, Biacore 3000, immobilized cyclic peptide); conditions: SPR, 25° C., HEPES buffer with 5 mM magnesium chloride, integrin 30-1,000 nM; read-out: Performance evaluation: Binding activity (dissociation constant between the cyclic peptide and human integrin αvβ5)
Summary of the method: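 Human αvβ5 (30-1,000 nM) flowed for 10 min at 25 °C over immobilized cyclic peptide in 20 mM HEPES, 150 mM NaCl, 5 mM MgCl2, pH 7.4, followed by 30 min running buffer and 0.5 M EDTA regeneration. Dissociation constant from peptide minus unimmobilized channel, scored into standard grades.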

[1] = Evaluation of molecule stability (alkali treatment, residual rate by LC/MS); format: physicochemical; conditions: 500 μM peptide aqueous solution plus equivalent of 1 M sodium hydroxide, 15° C., 3 hours, LC/MS peak area
Summary of the method: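 Stability read as percent of summed LC/MS peak area remaining versus untreated peptide (C18, 45 °C, 10 mM ammonium formate pH 3, ESI positive/negative). Treatment: 500 μM peptide in water plus an equivalent of 1 M NaOH, 15 °C for 3 hours.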

human integrin αvβ5, sequence (P06756 31-1048): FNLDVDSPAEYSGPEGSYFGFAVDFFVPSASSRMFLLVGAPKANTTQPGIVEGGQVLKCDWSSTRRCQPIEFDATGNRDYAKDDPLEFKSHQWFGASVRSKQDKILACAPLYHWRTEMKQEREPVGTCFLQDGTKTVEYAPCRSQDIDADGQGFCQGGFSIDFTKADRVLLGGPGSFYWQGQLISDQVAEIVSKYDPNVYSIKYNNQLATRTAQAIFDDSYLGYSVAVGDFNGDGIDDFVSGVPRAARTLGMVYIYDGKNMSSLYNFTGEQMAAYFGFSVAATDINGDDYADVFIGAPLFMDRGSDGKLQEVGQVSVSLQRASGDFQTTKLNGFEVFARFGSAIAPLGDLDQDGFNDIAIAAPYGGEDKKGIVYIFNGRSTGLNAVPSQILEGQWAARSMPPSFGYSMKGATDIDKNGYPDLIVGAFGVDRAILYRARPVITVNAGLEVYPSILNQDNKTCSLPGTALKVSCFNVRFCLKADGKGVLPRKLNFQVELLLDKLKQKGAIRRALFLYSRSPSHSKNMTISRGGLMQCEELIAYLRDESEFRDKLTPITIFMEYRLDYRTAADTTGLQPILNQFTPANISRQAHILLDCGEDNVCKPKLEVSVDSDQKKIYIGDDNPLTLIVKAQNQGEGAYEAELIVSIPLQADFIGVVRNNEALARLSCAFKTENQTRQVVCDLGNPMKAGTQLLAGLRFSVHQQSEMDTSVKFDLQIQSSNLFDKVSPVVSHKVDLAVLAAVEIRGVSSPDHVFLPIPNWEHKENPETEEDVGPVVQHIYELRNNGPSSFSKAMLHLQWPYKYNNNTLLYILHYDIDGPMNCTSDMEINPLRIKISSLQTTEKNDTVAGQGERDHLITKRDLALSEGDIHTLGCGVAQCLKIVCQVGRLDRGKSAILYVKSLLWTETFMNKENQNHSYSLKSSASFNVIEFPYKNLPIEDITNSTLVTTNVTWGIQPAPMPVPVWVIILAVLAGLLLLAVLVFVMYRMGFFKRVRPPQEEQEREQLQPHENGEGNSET
human integrin αvβ5, sequence (P18084 24-799): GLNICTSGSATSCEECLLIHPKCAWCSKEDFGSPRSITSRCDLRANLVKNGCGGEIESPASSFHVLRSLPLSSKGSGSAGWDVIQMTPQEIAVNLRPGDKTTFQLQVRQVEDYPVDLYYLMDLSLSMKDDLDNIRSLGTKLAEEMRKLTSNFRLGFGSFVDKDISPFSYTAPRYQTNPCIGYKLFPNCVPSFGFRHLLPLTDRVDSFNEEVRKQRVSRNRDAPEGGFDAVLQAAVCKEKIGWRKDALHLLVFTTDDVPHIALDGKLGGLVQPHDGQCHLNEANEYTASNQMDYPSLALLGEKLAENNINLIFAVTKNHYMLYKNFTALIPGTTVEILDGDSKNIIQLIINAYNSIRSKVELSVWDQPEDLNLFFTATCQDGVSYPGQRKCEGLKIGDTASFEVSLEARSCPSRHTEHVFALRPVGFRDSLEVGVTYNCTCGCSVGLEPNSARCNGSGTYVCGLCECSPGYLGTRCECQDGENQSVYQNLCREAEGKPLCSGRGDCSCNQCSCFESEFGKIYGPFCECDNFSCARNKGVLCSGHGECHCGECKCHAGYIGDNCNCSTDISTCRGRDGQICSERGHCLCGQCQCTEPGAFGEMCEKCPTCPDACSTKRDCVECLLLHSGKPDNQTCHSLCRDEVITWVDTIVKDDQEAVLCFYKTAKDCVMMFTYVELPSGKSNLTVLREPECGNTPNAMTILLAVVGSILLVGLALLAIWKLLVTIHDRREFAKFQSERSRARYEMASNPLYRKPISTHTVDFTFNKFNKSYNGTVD

Compound	Kd (human integrin αvβ5) [nM]	Performance evaluation: Stability (residual rate of cyclic peptide after alkali treatment) [1]
CC(C)C[C@@H]1NC(=O)[C@@H](NC(=O)CNC(=O)[C@H](CCCCN)NC(=O)[C@H](CCCCN)NC(=O)[C@@H](N)CCCCN)CCSCC(=O)NCC[C@@H](C(=O)N[C@@H](C)C(=O)O)NC(=O)[C@H](CCCNC(=N)N)NC(=O)[C@H](Cc2ccccc2)NC(=O)[C@H](CO)NC(=O)[C@H](CC(=O)O)NC(=O)CNC(=O)[C@H](CCCNC(=N)N)NC(=O)[C@@H]2CCCN2C1=O [Cyclic peptide 28, KKKG-(Hcy)-LPRGDSFR(Dab(acetyl))A] (H-KKKG[hCys]LPRGDSFR[Dab]A-OH; linker 5-14 via X2)	50 to 100	A (The residual rate of the cyclic peptide is 70% or more.)
CC(C)[C@@H]1NC(=O)[C@@H](NC(=O)[C@H](C)NC(=O)[C@H](CCCCN)NC(=O)[C@H](CCCCN)NC(=O)[C@@H](N)CCCCN)CCSCC(=O)NCC[C@@H](C(=O)N[C@@H](CC(=O)O)C(=O)O)NC(=O)[C@H](CCCNC(=N)N)NC(=O)[C@H](Cc2ccc(O)cc2)NC(=O)[C@H](CC(N)=O)NC(=O)[C@H](CC(=O)O)NC(=O)CNC(=O)[C@H](CCCNC(=N)N)NC(=O)[C@@H]2CCCN2C1=O [Cyclic peptide 29, KKKA-(Hcy)-VPRGDNYR(Dab(acetyl))D] (H-KKKA[hCys]VPRGDNYR[Dab]D-OH; linker 5-14 via X2)	50 to 100	A (The residual rate of the cyclic peptide is 70% or more.)
CC[C@H](C)[C@@H]1NC(=O)[C@@H](NC(=O)[C@H](C)NC(=O)[C@H](CCCCN)NC(=O)[C@H](CCCCN)NC(=O)[C@@H](N)CCCCN)CCSCC(=O)NCC[C@@H](C(=O)N[C@@H](CC(=O)O)C(=O)O)NC(=O)[C@H](CCCNC(=N)N)NC(=O)[C@H](Cc2ccc(O)cc2)NC(=O)[C@H](CC(N)=O)NC(=O)[C@H](CC(=O)O)NC(=O)CNC(=O)[C@H](CCCNC(=N)N)NC(=O)[C@@H]2CCCN2C1=O [Cyclic peptide 30, KKKA-(Hcy)-IPRGDNYR(Dab(acetyl))D] (H-KKKA[hCys]IPRGDNYR[Dab]D-OH; linker 5-14 via X2)	< 50	A (The residual rate of the cyclic peptide is 70% or more.)
CC(C)C[C@@H]1NC(=O)[C@@H](NC(=O)[C@H](C)NC(=O)[C@H](CCCCN)NC(=O)[C@H](CCCCN)NC(=O)[C@@H](N)CCCCN)CCSCC(=O)NCC[C@@H](C(=O)N[C@@H](CC(=O)O)C(=O)O)NC(=O)[C@H](CCCNC(=N)N)NC(=O)[C@H](Cc2ccc(O)cc2)NC(=O)[C@H](CC(N)=O)NC(=O)[C@H](CC(=O)O)NC(=O)CNC(=O)[C@H](CCCNC(=N)N)NC(=O)[C@@H]2CCCN2C1=O [Cyclic peptide 31, KKKA-(Hcy)-LPRGDNYR(Dab(acetyl))D] (H-KKKA[hCys]LPRGDNYR[Dab]D-OH; linker 5-14 via X2)	< 50	A (The residual rate of the cyclic peptide is 70% or more.)
C[C@H](NC(=O)[C@H](CCCCN)NC(=O)[C@H](CCCCN)NC(=O)[C@@H](N)CCCCN)C(=O)N[C@H]1CCSCC(=O)NCC[C@@H](C(=O)N[C@@H](CC(=O)O)C(=O)O)NC(=O)[C@H](CCCNC(=N)N)NC(=O)[C@H](Cc2ccc(O)cc2)NC(=O)[C@H](CC(N)=O)NC(=O)[C@H](CC(=O)O)NC(=O)CNC(=O)[C@H](CCCNC(=N)N)NC(=O)[C@@H]2CCCN2C(=O)[C@H](Cc2ccc(O)cc2)NC1=O [Cyclic peptide 32, KKKA-(Hcy)-YPRGDNYR(Dab(acetyl))D] (H-KKKA[hCys]YPRGDNYR[Dab]D-OH; linker 5-14 via X2)	< 50	A (The residual rate of the cyclic peptide is 70% or more.)
C[C@H](NC(=O)[C@H](CCCCN)NC(=O)[C@H](CCCCN)NC(=O)[C@@H](N)CCCCN)C(=O)N[C@H]1CCSCC(=O)NCC[C@@H](C(=O)N[C@@H](CC(=O)O)C(=O)O)NC(=O)[C@H](CCCNC(=N)N)NC(=O)[C@H](Cc2ccc(O)cc2)NC(=O)[C@H](CO)NC(=O)[C@H](CC(=O)O)NC(=O)CNC(=O)[C@H](CCCNC(=N)N)NC(=O)[C@@H]2CCCN2C(=O)[C@H](CCC(=O)O)NC1=O [Cyclic peptide 33, KKKA-(Hcy)-EPRGDSYR(Dab(acetyl))D] (H-KKKA[hCys]EPRGDSYR[Dab]D-OH; linker 5-14 via X2)	100 to 200	A (The residual rate of the cyclic peptide is 70% or more.)
C[C@H](NC(=O)[C@H](CCCCN)NC(=O)[C@H](CCCCN)NC(=O)[C@@H](N)CCCCN)C(=O)N[C@H]1CCSCC(=O)NCC[C@@H](C(=O)N[C@@H](CC(=O)O)C(=O)O)NC(=O)[C@H](CCCNC(=N)N)NC(=O)[C@H](Cc2ccccc2)NC(=O)[C@H](CC(N)=O)NC(=O)[C@H](CC(=O)O)NC(=O)CNC(=O)[C@H](CCCNC(=N)N)NC(=O)[C@@H]2CCCN2C(=O)[C@H](CCC(=O)O)NC1=O [Cyclic peptide 34, KKKA-(Hcy)-EPRGDNFR(Dab(acetyl))D] (H-KKKA[hCys]EPRGDNFR[Dab]D-OH; linker 5-14 via X2)	< 50	A (The residual rate of the cyclic peptide is 70% or more.)
C[C@H](NC(=O)[C@H](CCCCN)NC(=O)[C@H](CCCCN)NC(=O)[C@@H](N)CCCCN)C(=O)N[C@H]1CCSCC(=O)NCC[C@@H](C(=O)N[C@@H](CC(=O)O)C(=O)O)NC(=O)[C@H](CC(=O)O)NC(=O)[C@H](Cc2ccc(O)cc2)NC(=O)[C@H](CC(N)=O)NC(=O)[C@H](CC(=O)O)NC(=O)CNC(=O)[C@H](CCCNC(=N)N)NC(=O)[C@@H]2CCCN2C(=O)[C@H](CCC(=O)O)NC1=O [Cyclic peptide 35, KKKA-(Hcy)-EPRGDNYD(Dab(acetyl))D] (H-KKKA[hCys]EPRGDNYD[Dab]D-OH; linker 5-14 via X2)	100 to 200	A (The residual rate of the cyclic peptide is 70% or more.)
C[C@H](NC(=O)[C@H](CCCCN)NC(=O)[C@H](CCCCN)NC(=O)[C@@H](N)CCCCN)C(=O)N[C@H]1CCSCC(=O)NCC[C@@H](C(=O)N[C@@H](CC(=O)O)C(=O)O)NC(=O)[C@H](CCC(=O)O)NC(=O)[C@H](Cc2ccc(O)cc2)NC(=O)[C@H](CC(N)=O)NC(=O)[C@H](CC(=O)O)NC(=O)CNC(=O)[C@H](CCCNC(=N)N)NC(=O)[C@@H]2CCCN2C(=O)[C@H](CCC(=O)O)NC1=O [Cyclic peptide 36, KKKA-(Hcy)-EPRGDNYE(Dab(acetyl))D] (H-KKKA[hCys]EPRGDNYE[Dab]D-OH; linker 5-14 via X2)	50 to 100	A (The residual rate of the cyclic peptide is 70% or more.)
N=C(N)NCCC[C@@H]1NC(=O)[C@H](Cc2ccc(O)cc2)NC(=O)[C@H](CC(N)=O)NC(=O)[C@H](CC(=O)O)NC(=O)CNC(=O)[C@H](CCCNC(=N)N)NC(=O)[C@@H]2CCCN2C(=O)[C@H](CCC(=O)O)NC(=O)[C@@H](NC(=O)CNC(=O)[C@H](CCCCN)NC(=O)[C@H](CCCCN)NC(=O)[C@@H](N)CCCCN)CCSCC(=O)NCC[C@@H](C(=O)N[C@@H](CC(=O)O)C(=O)O)NC1=O [Cyclic peptide 37, KKKG-(Hcy)-EPRGDNYR(Dab(acetyl))D] (H-KKKG[hCys]EPRGDNYR[Dab]D-OH; linker 5-14 via X2)	50 to 100	A (The residual rate of the cyclic peptide is 70% or more.)
N=C(N)NCCC[C@@H]1NC(=O)[C@H](Cc2ccc(O)cc2)NC(=O)[C@H](CC(N)=O)NC(=O)[C@H](CC(=O)O)NC(=O)CNC(=O)[C@H](CCCNC(=N)N)NC(=O)[C@@H]2CCCN2C(=O)[C@H](CCC(=O)O)NC(=O)[C@@H](NC(=O)[C@H](CC(=O)O)NC(=O)[C@H](CCCCN)NC(=O)[C@H](CCCCN)NC(=O)[C@@H](N)CCCCN)CCSCC(=O)NCC[C@@H](C(=O)N[C@@H](CC(=O)O)C(=O)O)NC1=O [Cyclic peptide 38, KKKD-(Hcy)-EPRGDNYR(Dab(acetyl))D] (H-KKKD[hCys]EPRGDNYR[Dab]D-OH; linker 5-14 via X2)	50 to 100	A (The residual rate of the cyclic peptide is 70% or more.)
N=C(N)NCCC[C@@H]1NC(=O)[C@H](Cc2ccc(O)cc2)NC(=O)[C@H](CC(N)=O)NC(=O)[C@H](CC(=O)O)NC(=O)CNC(=O)[C@H](CCCNC(=N)N)NC(=O)[C@@H]2CCCN2C(=O)[C@H](CCC(=O)O)NC(=O)[C@@H](NC(=O)[C@H](CCC(=O)O)NC(=O)[C@H](CCCCN)NC(=O)[C@H](CCCCN)NC(=O)[C@@H](N)CCCCN)CCSCC(=O)NCC[C@@H](C(=O)N[C@@H](CC(=O)O)C(=O)O)NC1=O [Cyclic peptide 39, KKKE-(Hcy)-EPRGDNYR(Dab(acetyl))D] (H-KKKE[hCys]EPRGDNYR[Dab]D-OH; linker 5-14 via X2)	< 50	A (The residual rate of the cyclic peptide is 70% or more.)
C[C@H](NC(=O)[C@H](CCCCN)NC(=O)[C@H](CCCCN)NC(=O)[C@@H](N)CCCCN)C(=O)N[C@H]1CCSCC(=O)NCC[C@@H](C(=O)NCC(=O)O)NC(=O)[C@H](CCCNC(=N)N)NC(=O)[C@H](Cc2ccc(O)cc2)NC(=O)[C@H](CC(N)=O)NC(=O)[C@H](CC(=O)O)NC(=O)CNC(=O)[C@H](CCCNC(=N)N)NC(=O)[C@@H]2CCCN2C(=O)[C@H](CCC(=O)O)NC1=O [Cyclic peptide 40, KKKA-(Hcy)-EPRGDNYR(Dab(acetyl))G] (H-KKKA[hCys]EPRGDNYR[Dab]G-OH; linker 5-14 via X2)	50 to 100	A (The residual rate of the cyclic peptide is 70% or more.)
